Results taken from patent US11730712B2, “Functionalized long-chain hydrocarbon mono- and di-carboxylic acids and derivatives thereof, and their use for the prevention or treatment of disease” (ESPERVITA THERAPEUTICS, INC., priority 2021, dated 2023).
Each block holds one compound with its values, some of them ahead of it.

Key:
[1] = system: mouse primary hepatocytes; test: 14C-acetate incorporation into total lipids in primary mouse hepatocytes; type: cell-based; conditions: 4-hour period; for IC50: Hepatocyte, read-out: IC50 in μM, inhibition of 14C-acetate incorporation in total lipids
Experimental: After perfusion, collagen digested liver cells were re-suspended in William's E media (11 mM glucose) (Gibco) supplemented with 10% fetal bovine serum (FBS) (Gibco), 2 mM L-glutamine (Gibco) and 1% Antibiotic-Antimycotic (Gibco) mixture and seeded in white opaque 96-well plates. On the following day, the cells were serum-starved for 2 hours, then treated with 0 μM, 0.1 μM, 0.3 μM, 0.5 μM, 1 μM, 3 μM, 10 μM, and 100 μM of Compound I-32, Compound I-1, or Compound III-1 or Reference Compound (e.g., Compounds A-E and bempedoic acid) in the presence of ^14C-Acetate (1 μCi/ml, PerkinElmer). Each of Compound I-32, Compound I-1, Compound III-1, and Reference Compound was solubilized in 100% DMSO to a final concentration of 100 mM stock solution. In the experimental condition, the stock solution was diluted in serum free media (William's E media (11 mM glucose) (Gibco), 2 mM L-glutamine (Gibco) and 1% Anti biotic-Antimycotic) to yield the desired concentration of each compound. […] After 4 hours of treatment, the plates were washed two times with PBS (×1) and 100 μL microscint fluid (Microscint O, part #601361) was added in each well. Plates were wrapped with aluminum foil and were shaken at 250 rpm for 2 h. After 2 h of shaking, ^14C incorporation into lipid was determined by liquid scintillation counting using a TopCount NXT Microplate Scintillation and Luminescence Counter (Perkin Elmer).
The effects of Compound I-32. Compound I-1, and Compound III-1 on mouse primary hepatocyte lipogenesis are represented in Table 1. Each Compound was assayed at a concentration of 0 μM (vehicle control), 0.1 μM, 0.3 μM, 0.5 μM, 1 μM, 3 μM, 10 μM, and 100 μM, unless otherwise noted. Statistically significant inhibition was determined by one-way ANOVA and Dennett's post hoc test where appropriate. […] IC50 values were determined by nonlinear regression. All statistical analyses were carried out using GraphPad Prism 8 software. A p-value of less than or equal 0.05 was considered significant.

Human ACC1 = target: T1, Human ACC1 (Homo sapiens, UniProt Q13085); test: ACC1 enzymatic assay (ADP-Glo); type: biochemical; conditions: recombinant human ACC1 5 nM, 10 μM ATP, 10 μM acetyl CoA; Run 1-3; read-out: Compound IC50 (M) ACC1
T1 construct: FLAG (C); His (C); purchased BPS Biosciences 50202; host or cells: Baculovirus infected Sf9 cells
Experimental: (§1) Human ACC1 (Cat#50202 Lot #120830) and ACC2 (Cat #50201 Lot #160217) were obtained from BPS Biosciences, San Diego, Calif. 92121. Human ACC1 had C-terminal flag and His-tags with a MW of 270 KDa after purification from Baculovirus infected Sf9 cell expression system and came as a solution in 50 mM Tris-HCl, pH 8.0, 500 mM NaCl, 10% glycerol, 1 mM DTT, 100 μg/ml FLAG peptide with 70% purity. The stock concentration was 0.25 mg/ml corresponding to 0.926 μM. Human ACC2 was also purified from Baculovirus infected Sf9 expression system. […] The stock concentration was 0.1 mg/ml corresponding to 0.36 μM. The assay buffer for measuring the activity of ACC contained: 30 mM HEPES (pH 7.4), 2 mM MgCl2, 0.01% Brij35, 2 mM DTT, 1% DMSO (solvent for compound). For ACC1 and ACC2 assays, the following concentrations of substrate and cofactors were used: 12 mM NaHCO3, 10 μM acetyl CoA, 10 μM ATP, and 2 mM K-citrate. The recombinant human enzyme was used at 5 nM for ACC1 and 1 nM for ACC2. In brief, enzyme alone in the above buffer without substrate was used for background. All test materials were dissolved in 100% DMSO using acoustic technology (Echo550). The prepared solution was preincubated for 15 min followed by the addition of 5 μL/well of ADP standard. ATP was then added to start the reaction. The assay contents were spun and briefly shaken followed by incubation at room temperature for 1 h. At the end of completion of assay, 5 μL of ADP-Glo was added to each well to stop the reaction. The contents were mixed, spun and incubated at room temperature for 40 min followed by the addition of 10 μL/well of ADP detection reagent. The contents were spun, mixed and covered with plastic to measure luminescence. […] The light generated, measured in a luminometer, correlates to the amount of ADP generated in the ACC assay, which is indicative of ACC activity.
(§2) The enzyme concentrations for ACC1 and ACC2 were 5 nM and 1 nM, respectively.
Data represent nM or μM ADP produced, % Activity (relative to no inhibitor controls), and curve fits were performed by GraphPad Prism software. The IC50 concentration-response curves were generated for both the ACC1 and ACC2 assays using recombinant human ACC.

Human ACC2 = target: T2, Human ACC2 (Homo sapiens, UniProt O00763); test: ACC2 enzymatic assay (ADP-Glo); type: biochemical; conditions: recombinant human ACC2 1 nM, 10 μM ATP, 10 μM acetyl CoA; Run 1-3; read-out: Compound IC50 (M) ACC2
T2 construct: FLAG (C); His (C); purchased BPS Biosciences 50201; host or cells: Baculovirus infected Sf9 cells
Experimental: as §1, §2
Data represent nM or μM ADP produced, % Activity (relative to no inhibitor controls), and curve fits were performed by GraphPad Prism software. […]

[2] = system: Hepa1-6 murine hepatoma cells; test: Cell proliferation assay (presto blue, 72 h); type: cell-based, mouse; conditions: Mus musculus, Hepa1-6, 72 h; read-out: Hepa1-6 (IC50), anti-proliferation activity
Experimental: (§3) Cell cultures. Hep3B (ATCC) and Hepa1-6 (ATCC) cells were seeded in 96-well plates at a density of 3000 cells/well with complete media. On day 2, media in each well was aspirated and replaced with 100 μl of fresh complete media and cells were treated with or without Compound I-1, Compound I-32, Compound I1-84, and Compound I-85, in a concentration dependent manner. Then, cells were incubated in an incubator for 72 h. On day 5, 10 μl of presto blue (Invitrogen, cat #A13261) cell viability reagent was added in each 96-well plate and incubated at 37° C. for 1-2 h. After incubation, fluorescence was measured with an excitation/emission wavelength of 560/590 nm.
(§4) Proliferation assay. Hep3B (ATCC) and Hepa1-6 (ATCC) cells were seeded in 96-well plates at a density of 3000 cells/well with complete media. On day 2, media in each well was aspirated and replaced with 100 μl of fresh complete media and cells were treated with/without testing compounds in a concentration dependent manner. Then, cells were incubated in an incubator for 72 h. On day 5, 10 μl of presto blue (Invitrogen, cat #A13261) cell viability reagent was added in each 96-well plate and incubated at 37° C. for 1-2 h. After incubation, fluorescence was measured with an excitation/emission wavelength of 560/590 nm. Anti-proliferative combination effects of Compound I-1 or Compound I-32 and regorafenib were determined in Hep3B and Hepa1-6 cells. Drug combination interaction was determined by the Chou-Talalay method (23), which is based on well-known equations for different reaction sequences and mechanisms, and different types of inhibition. These equations provide the theoretical basis for the combination index (CI)-isobologram equation that allows quantitative determination of drug interactions, where CI<1, =1, and >1 indicate synergism, additive effect, and antagonism, respectively. CI is calculated based on in vitro measurements implemented in the Compusyn software (www.combosyn.com), a platform for drug combinations pharmacodynamics with automated simulations. The software calculates CI based on the Fractional Inhibition (Fa), which is the potency expressed by the average effect values for each drug concentrations as determined by in vitro experiments. The dose-effect data entries are utilized for automated computerized analysis by the Compusyn software.
(§5) Data entered was obtained by in vitro experiments performed as follows: Hep3B or Hepa 1-6 cells were plated in a 96-well format and cell proliferation rates were determined as described above. Cells were treated with 5 doses of each test agent alone at the following concentrations: compounds of the invention dosed at 1, 5, 10, 50, or 100 μM for both Hep3B and Hepa1-6 cells, regorafenib dosed at 0.015, 0.075, 0.15, 0.75, and 1.5 μM for Hep3B cells or 0.05, 0.25, 0.5, 2.5, 5 μM for Hepa 1-6 cells. […]. Data are shown as Fa-CI plots where CI is the combination index and Fa is fractional inhibition. Results were indicated as mean±standard deviation (SD). All bar diagrams and line graphs were prepared using Graph Pad Prism 8 software. Drug synergy was calculated using the CompuSyn software.
(§6) Methods: Hep3B cells (supplied by ATCC) and Hepa1-6 cells (supplied by ATCC) were seeded in 96-well plates at a density of 3000 cells/well with complete media. On day 2, the media in each well was aspirated and replaced with 100 μL of fresh complete media, and the cells were treated in a concentration dependent manner with either Compound I-1, Compound I-32, Compound I-84, Compound I-85, sorafenib, lenvatinib, Compound I-1 in combination with sorafenib. Compound I-1 in combination with lenvatinib, Compound I-32 in combination with sorafenib, or Compound I-32 in combination with lenvatinib. The cells were then incubated in an incubator at 37° C. for 72 h. On day 5, 10 μL of presto blue (Invitrogen, cat #A13261) cell viability reagent was added to each 96-well plate and incubated at 37° C. for 1-2 h. […]

[3] = system: Hep3B human hepatocarcinoma cells; test: Colony formation assay (clonogenic survival, 7 days); type: cell-based; conditions: 168 h, read-out: Hep3B (IC50), anti-clonogenic activity
Experimental: (§7) Colony formation assay. Hep3B and Hepa1-6 cells were seeded in 12-well plates at a cell density of 1000 and 500 cells/well, respectively. On day 2, media in each well was aspirated and replaced with 1000 μl of fresh complete media and cells were treated with or without the respective drugs in an increasing concentration followed by the incubation of the cells for 7 days in an incubator.
(§8) On day 9, the media in each well was aspirated and cells were fixed with 10% formalin (500 μl) for 10 minutes at room temperature. Formalin was aspirated and the plates were washed with 1×PBS and stained with crystal violet for another 10 minutes. After 10 minutes of staining, crystal violet was […] the cells, rinsed with tap water for three times and the plates were dried overnight. Next day, colonies (>50 cells) were counted and analyzed.
(§9) Statistical tests. Results were indicated as mean±standard deviation (SD). All line graphs were prepared using Graph Pad Prism 8 software. Proliferation and clonogenics IC50 values were calculated using a non-linear regression model in Graph pad Prism 8.

[4] = system: Hepa1-6 murine hepatoma cells; test: as above; type: cell-based; conditions: Mus musculus, Hepa1-6, 168 h, read-out: Hepa1-6 (IC50), anti-clonogenic activity
Experimental: as §7, §8, §9

[5] = system: Hep3B human hepatocarcinoma cells; test: Cell proliferation assay (presto blue, 72 h); type: cell-based; conditions: Homo sapiens, Hep3B, 72 h; read-out: Hep3B (IC50), anti-proliferation activity
Experimental: as §3, §4, §5, §6

[6] = system: Acyl-CoA synthetase activity in rat liver microsomes; test: Synthesis of CoA derivatives in rat liver microsomes (LCMS); conditions: 1 mM substrate, 30 min sample vs 0 min
Experimental: Prior to the experiment a 1 mM working stock was created in primary hepatocyte media which was used to create the final dilution series of 0 (vehicle), 0.3, 1, 3, 10, and 30 μM. The final concentration of DMSO in all samples was <1%.
For initial validation of ACS activity using palmitate, 14C-palmitate was added (0.5 μCi/ml). Each sample was equilibrated at 37° C. while shaking for 10 min before the reaction was initiated by the addition of 0.04 mg of rat microsomal preparation (ThermoFisher Scientific. Cat #RTM-CPL, Lot #RT060-A) followed by incubation for 1, 3, 10, or 30 mins. Time 0 sample with no added microsomes was used as a control. The reaction was stopped by immediately placing the reaction tube on ice followed by the rapid addition of the reaction mixture to 2.25 ml ice-cold isopropanol/heptane/2M-sulfuric acid (40:10:1, vol/vol) in a 5 ml glass vial. […] For studies that involved measurement of 14C Palmitoyl-CoA formation, 200 μl of the lower aqueous phase was added to the 5 ml of scintillation fluid and the number of DPMs were determined by liquid scintillation counting for 5 minutes using a LS6500 Liquid Scintillation Counter (Beckman Coulter). […]
The reaction products were ionized by electrospray ion source (ESI) in positive mode. […] The resulting mass spectra were analyzed using the Xcalibur 2.1 Qualitative software package. […]

T2 sequence (O00763 whole entry): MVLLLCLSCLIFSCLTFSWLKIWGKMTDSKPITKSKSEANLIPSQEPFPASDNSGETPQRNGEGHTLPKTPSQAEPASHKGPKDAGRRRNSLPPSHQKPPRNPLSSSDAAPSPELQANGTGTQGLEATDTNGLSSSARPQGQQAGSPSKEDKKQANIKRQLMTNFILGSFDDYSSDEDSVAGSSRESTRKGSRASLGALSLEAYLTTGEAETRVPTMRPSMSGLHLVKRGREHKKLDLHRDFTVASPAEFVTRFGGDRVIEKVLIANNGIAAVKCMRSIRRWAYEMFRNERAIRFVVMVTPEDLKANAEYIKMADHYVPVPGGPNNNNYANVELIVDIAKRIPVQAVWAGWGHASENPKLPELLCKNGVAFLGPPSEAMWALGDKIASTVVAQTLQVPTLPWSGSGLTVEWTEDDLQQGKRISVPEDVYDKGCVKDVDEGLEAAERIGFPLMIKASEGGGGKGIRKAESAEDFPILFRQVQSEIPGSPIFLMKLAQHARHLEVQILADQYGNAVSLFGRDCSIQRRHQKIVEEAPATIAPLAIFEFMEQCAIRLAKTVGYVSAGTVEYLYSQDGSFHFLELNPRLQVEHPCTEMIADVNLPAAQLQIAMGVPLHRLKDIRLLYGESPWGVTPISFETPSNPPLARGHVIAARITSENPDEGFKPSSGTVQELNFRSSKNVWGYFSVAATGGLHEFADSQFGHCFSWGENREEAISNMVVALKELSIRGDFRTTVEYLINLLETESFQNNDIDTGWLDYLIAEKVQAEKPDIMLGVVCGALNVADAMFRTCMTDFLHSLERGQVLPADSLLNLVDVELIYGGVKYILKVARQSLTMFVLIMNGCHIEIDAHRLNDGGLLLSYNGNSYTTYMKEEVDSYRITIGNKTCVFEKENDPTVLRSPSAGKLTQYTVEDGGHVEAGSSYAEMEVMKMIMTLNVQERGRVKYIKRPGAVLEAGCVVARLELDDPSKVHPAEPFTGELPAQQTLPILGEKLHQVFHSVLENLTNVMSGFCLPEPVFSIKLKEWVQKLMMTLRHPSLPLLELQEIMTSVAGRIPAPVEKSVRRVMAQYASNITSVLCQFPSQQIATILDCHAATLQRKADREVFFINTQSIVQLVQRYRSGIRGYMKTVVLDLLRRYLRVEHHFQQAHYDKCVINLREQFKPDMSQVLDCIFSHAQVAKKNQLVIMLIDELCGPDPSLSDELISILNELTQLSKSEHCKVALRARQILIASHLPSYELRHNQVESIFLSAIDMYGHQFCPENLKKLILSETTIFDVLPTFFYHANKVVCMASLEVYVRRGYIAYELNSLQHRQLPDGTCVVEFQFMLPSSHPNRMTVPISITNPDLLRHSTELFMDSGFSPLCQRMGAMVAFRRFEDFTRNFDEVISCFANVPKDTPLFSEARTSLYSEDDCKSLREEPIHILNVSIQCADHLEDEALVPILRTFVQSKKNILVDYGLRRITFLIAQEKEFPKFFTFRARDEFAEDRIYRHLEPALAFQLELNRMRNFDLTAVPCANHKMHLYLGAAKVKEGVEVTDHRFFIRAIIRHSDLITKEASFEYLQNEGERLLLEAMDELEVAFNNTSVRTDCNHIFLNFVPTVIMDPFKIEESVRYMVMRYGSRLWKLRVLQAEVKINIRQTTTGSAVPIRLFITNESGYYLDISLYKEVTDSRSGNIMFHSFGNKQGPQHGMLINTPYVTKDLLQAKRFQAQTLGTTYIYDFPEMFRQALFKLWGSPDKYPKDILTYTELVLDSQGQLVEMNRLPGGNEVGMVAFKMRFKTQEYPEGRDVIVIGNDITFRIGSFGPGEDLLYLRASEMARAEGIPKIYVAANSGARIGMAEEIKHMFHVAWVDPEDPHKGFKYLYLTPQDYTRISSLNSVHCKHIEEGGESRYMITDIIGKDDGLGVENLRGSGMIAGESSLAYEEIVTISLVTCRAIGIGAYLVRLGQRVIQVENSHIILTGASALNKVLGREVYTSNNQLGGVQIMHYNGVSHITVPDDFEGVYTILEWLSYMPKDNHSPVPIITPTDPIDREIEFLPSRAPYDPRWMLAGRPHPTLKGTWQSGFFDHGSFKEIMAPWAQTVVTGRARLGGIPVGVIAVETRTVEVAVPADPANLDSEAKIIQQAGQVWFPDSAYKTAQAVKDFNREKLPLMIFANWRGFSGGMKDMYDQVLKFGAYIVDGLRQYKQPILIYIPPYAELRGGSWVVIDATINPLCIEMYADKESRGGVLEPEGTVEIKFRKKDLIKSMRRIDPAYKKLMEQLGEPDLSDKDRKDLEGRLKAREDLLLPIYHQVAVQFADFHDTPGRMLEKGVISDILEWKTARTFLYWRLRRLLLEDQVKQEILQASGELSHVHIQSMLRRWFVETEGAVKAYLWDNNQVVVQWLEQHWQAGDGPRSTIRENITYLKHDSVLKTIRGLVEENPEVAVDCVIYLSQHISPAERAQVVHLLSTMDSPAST

SMILES: CC(C)(CCCc1ccccc1CCCC(C)(C)C(=O)O)C(=O)O [Compound I-61, 5-[2-(4-Carboxy-4-methylpentyl)-phenyl]-2,2-dimethylpentanoic acid]
% change from control at 100 μM ± SEM(n), 14C-acetate incorporation in total lipids [1]: +44 ± 8.1 (n = 4) %

IC50 (Human ACC1): 2.14e-06 M
IC50 (Human ACC2): 7.81e-08 M
SMILES: O=C(c1c2ccccc2cc2ccccc12)N1CCC(N2CCC[C@@H](C(=O)N3CCOCC3)C2)CC1 [CP 640186, reference compound]

SMILES: CC(C)(CCCCCCC(=O)CCCCCCC(C)(C)C(=O)O)C(=O)O [E]
IC50 [1]: 0.35 µM

IC50 [2]: > 100 µM
IC50 [5]: > 100 µM
SMILES: CC(C)(CCCCc1ccc(CCCCC(C)(C)CC(=O)O)cc1)CC(=O)O [Compound I-84, 7,7′-(1,4-phenylene)bis(3,3-dimethylheptanoic acid)]
IC50 [3]: 50.1 µM
IC50 [4]: 64.9 µM

SMILES: CC(C)(CCCCCCCCCCCC(C)(C)C(=O)O)C(=O)O [F]
IC50 [1]: < 0.3 µM

SMILES: CC(C)(CCCc1ccc(CCCC(C)(C)C(=O)O)cc1)C(=O)O [III-1, 5,5′-(1,4-phenylene)bis(2,2-dimethylpentanoic acid)]
IC50 [1]: 27.7 µM

SMILES: CC(C)(CO)CCCCC(=O)CCCCC(C)(C)CO [A]
IC50 [1]: 73.2 µM

SMILES: CC(C)(CCCCCC(O)CCCCCC(C)(C)C(=O)O)C(=O)O [BA, Bempedoic acid]
IC50 [1]: 0.68 µM

SMILES: CC(C)(CCCc1ccccc1CCCC(C)(C)C(=O)SCCNC(=O)CCNC(=O)[C@H](O)C(C)(C)COP(=O)(O)OP(=O)(O)OC[C@H]1O[C@@H](n2cnc3c(N)ncnc32)[C@H](O)[C@@H]1OP(=O)(O)O)C(=O)O [Compound I-61-CoA, 5-[2-(4-Carboxy-4-methylpentyl)-phenyl]-2,2-dimethylpentanoic acid Coenzyme A ester]
formation of the CoA derivative, detection by LCMS [6]: could not be confirmed using fragmentation analysis

SMILES: CC(C)(CO)CCCCCC(=O)CCCCCC(C)(C)CO [D]
IC50 [1]: 5.39 µM

IC50 [2]: > 100 µM
IC50 [5]: > 100 µM
SMILES: CC(C)(CCCCc1cccc(CCCCC(C)(C)CC(=O)O)c1)CC(=O)O [Compound I-85, 7,7′-(1,3-phenylene)bis(3,3-dimethylheptanoic acid)]
IC50 [3]: 49.1 µM
IC50 [4]: 61 µM

SMILES: CC(C)(CCCCC(=O)CCCCC(C)(C)C(=O)O)C(=O)O [B]
% change from control at 100 μM ± SEM(n), 14C-acetate incorporation in total lipids [1]: −69 ± 2.3 (n = 4) %
IC50 [1]: 25.6 µM

SMILES: CC(C)(CCCCCC(=O)CCCCCC(C)(C)C(=O)O)C(=O)O [C]
IC50 [1]: 0.46 µM
